How the values were obtained:
[1] = tested on: patients with chronic left sided congestive heart failure; test: Resting and exercise blood pressure, heart rate, ST-segment depression and cardiothoracic ratio, trimazosin (Example 3); format: in vivo, human; conditions: for Cardiothoracic ratio / Exercise diastolic blood pressure / Exercise heart rate / Exercise systolic blood pressure / Exercise systolic pressure times heart rate/100 / Maximal ST-segment depression below resting level / Resting diastolic blood pressure / Resting heart rate / Resting systolic blood pressure / Resting systolic pressure times heart rate/100: mean
From the text: Sixteen men between 41 and 66 years of age with chronic left sided congestive heart failure were subjects. Twelve patients had coronary heart disease with an old healed myocardial infarction, one patient had alcoholic cardiomyopathy, and three patients had idiopathic cardiomyopathy as the cause of their chronic heart failure. All 16 patients had cardiomegaly on physical examination and on their chest roentgenogram, a left ventricular third heart sound heard by auscultation, and evidence of pulmonary venous congestion on their chest roentgenogram. Their baseline standing blood pressures ranged between 114 and 150 mm. Hg. systolic and 72 and 100 mm. Hg. diastolic.
After baseline measurements, all 16 patients received one capsule of single-blind placebo three times daily for two weeks. The patients then received in a double-blind, randomized study trimazosin or placebo for six weeks. Eight patients received one placebo capsule three times daily for weeks one and two, two placebo capsules three times daily for weeks three and four, and three placebo capsules three times daily for weeks five and six of the double-blind period. Seven patients received one 50 mg. trimazosin capsule three times daily for weeks one and two, two 50 mg. trimazosin capsules three times daily for weeks three and four, and three 50 mg. trimazosin capsules three times daily for weeks five and six of the double-blind period. One patient (patient number five on trimazosin) received one 50 mg. trimazosin capsule three times daily for 32 days.
The patients were seen by one of the investigators, questioned for symptoms, and given a physical examination in the baseline period, at the end of two weeks of single-blind placebo, and at the end of weeks one, two, three, four, five, and six on double-blind medication. A standard 12-lead electrocardiogram and PA and lateral chest roentgenograms were taken in the baseline period, at the end of two weeks of single-blind placebo, and at the end of three weeks and six weeks on double-blind medication.
Two practice treadmill tests were performed by all patients prior to the baseline period. The patients performed a multi-stage uninterrupted treadmill exercise test until the onset of marked dyspnea in the baseline period, and approximately two hours after their morning dose of medication after two weeks of single-blind placebo, after three weeks of double-blindmedication, and after six weeks of double-blind medication. The patients exercised at a treadmill speed of 1.7 m.p.h. and a treadmill grade of 0% for the first 3 min., a treadmill speed of 1.7 m.p.h. and a treadmill grade of 10% for the next 3 min., at a treadmill speed of 2.5 m.p.h. and a treadmill grade of 12% for the third 3 min. period, and then at a treadmill speed of 3.4 m.p.h. and a treadmill grade of 14%.
The patients were monitored by telemetry with simultaneous leads II and V5 throughout exercise. […] blood pressures were recorded with the patients in the sitting and standing positions immediately before exercise, with the patients in the standing position at the end of each completed stage of exercise and at the end of exercise, and with the patients in the sitting and standing positions every 1 min. for at least 5 min. after the end of exercise. Blood pressures were recorded with a mercury sphygmomanometer. The heart rates were measured from the electrocardiographic recordings.
The data listed in Tables 1-4 were analyzed using Student's t test for independent means. Fisher's exact test was used to analyze the data on improvement of symptoms and the data on changes in roentgenographic evidence of pulmonary venous congestion.

[2] = tested on: forearm veins of patients with congestive heart failure; test: Forearm venous capacitance by occlusion plethysmography after trimazosin (Example 2); format: in vivo, human
Experimental: On the day of hemodynamic studies, diuretics and other vasodilators were withheld but maintenance digitalis doses were given in order to obtain a reasonably steady hemodynamic state. Procainamide was given to the one patient who had been taking it chronically. Right heart catheterization was performed using a triple lumen Swan-Ganz catheter which was inserted percutaneously via an antecubital or femoral vein and positioned with its tip in the pulmonary artery and the proximal lumen in the right atrium [Swan, et al,. N. Engl. J. Med., 283, 447 (1970)]. A brachial artery was cannulated with a short teflon catheter inserted over an 18-guage thin walled needle. Catheters were connected to P23Db Statham pressure transducers and pressures recorded on a Hewlett-Packard multichannel physiological recorder. Transducers were positioned at the mid-chest level with the patient supine, and all measurements were made in this position. Heart rate was monitored from the electrocardiogram. Cardiac outputs were measured by the dye-dilution method using indocyanine green injected into the pulmonary artery and sampled from the brachial artery through a Gilford densitometer connected to the recorder. Forearm venous capacitance was measured by occlusion plethysmography employing a Whitney mercury-in-rubber resistance guage [Cohen, et al., Clin. Sci., 30, 267 (1966) and Mason, et al., Circulation, 32, 756 (1965)]. For this determination, the forearm was elevated and suspended in a cradle. The venous occluding cuff was inflated to 30 mm. Hg. and forearm girth allowed to equilibrate over 2-3 minutes. The change in forearm girth at this point was taken as a measure of venous capacitance.
Hemodynamic measurements were made before and at hourly intervals for 4 hours after administration of trimazosin. […] Systemic vascular resistance was calculated as the difference between means systemic arterial and right atrial pressures divided by cardiac output. Pulmonary vascular resistance was calculated as mean pulmonary arterial pressure divided by cardiac output. […]

[3] = patient number five, four days prior to the myocardial infarction

COc1cc2c(N)nc(N3CCN(C(=O)OCC(C)(C)O)CC3)nc2c(OC)c1OC [trimazosin, 2-hydroxy-2-methylpropyl 4-(4-amino-6,7,8-trimethoxy-2-quinazolinyl)-1-piperazinecarboxylate]
resting systolic blood pressure, change compared with placebo ([1]; 3 weeks, p<0.001): significant decrease
resting product of systolic blood pressure times heart rate, change compared with placebo ([1]; 3 weeks, p<0.005): significant decrease
resting diastolic blood pressure, change compared with placebo ([1]; 3 weeks, p<0.025): significant decrease
diastolic blood pressure at the end of exercise, change compared with placebo ([1]; 6 weeks, p<0.005): significant decrease
resting diastolic blood pressure, change compared with placebo ([1]; 6 weeks, p<0.005): significant decrease
resting systolic blood pressure, change compared with placebo ([1]; 6 weeks, p<0.005): significant decrease
resting product of systolic blood pressure times heart rate, change compared with placebo ([1]; 6 weeks, p<0.01): significant decrease
standing systolic blood pressure ([1]; patient number five, after two weeks of 50 mg. three times daily): 104/70
blood pressure, standing position [1, 3]: 104/70
blood pressure, supine position [1, 3]: 106/70
Cardiothoracic ratio ([1]; trimazosin 3 weeks): 0.559
Exercise diastolic blood pressure ([1]; trimazosin 3 weeks): 84.8 mm Hg
Exercise heart rate ([1]; trimazosin 3 weeks): 149.3 beats/min
Exercise systolic blood pressure ([1]; trimazosin 3 weeks): 156.5 mm Hg
Exercise systolic pressure times heart rate/100 ([1]; trimazosin 3 weeks): 236.4
Maximal ST-segment depression below resting level ([1]; trimazosin 3 weeks): 1.31 mm
Resting diastolic blood pressure ([1]; trimazosin 3 weeks): 74.3 mm Hg
Resting heart rate ([1]; trimazosin 3 weeks): 86.3 beats/min
Resting systolic blood pressure ([1]; trimazosin 3 weeks): 116.0 mm Hg
Resting systolic pressure times heart rate/100 ([1]; trimazosin 3 weeks): 100.0
Cardiothoracic ratio ([1]; trimazosin 6 weeks): 0.556
Exercise diastolic blood pressure ([1]; trimazosin 6 weeks): 80.5 mm Hg
Exercise heart rate ([1]; trimazosin 6 weeks): 151.0 beats/min
Exercise systolic blood pressure ([1]; trimazosin 6 weeks): 154.3 mm Hg
Exercise systolic pressure times heart rate/100 ([1]; trimazosin 6 weeks): 235.4
Maximal ST-segment depression below resting level ([1]; trimazosin 6 weeks): 1.31 mm
Resting diastolic blood pressure ([1]; trimazosin 6 weeks): 72.5 mm Hg
Resting heart rate ([1]; trimazosin 6 weeks): 86.5 beats/min
Resting systolic blood pressure ([1]; trimazosin 6 weeks): 112.0 mm Hg
Resting systolic pressure times heart rate/100 ([1]; trimazosin 6 weeks): 96.9
increase in forearm venous capacitance ([2]; 2 hours after trimazosin): 35%
forearm venous capacitance ([2]; 2 hours after trimazosin, before 0.83 ± 0.18): 1.12 ± 0.22 ml./100 gm.
increase in forearm venous capacitance ([2]; one patient with normal pulmonary wedge pressure): 50%

Source: US4130647A, “Methods for treating congestive heart failure and ischemic heart disease” (priority 1977, dated 1978)
